# From patent US8334302B2, “Synthesis and anti-proliferative effect of substituted imidazo[4,5-b]pyridine compounds” (Spelman College, priority 2008, dated 2012)
# Tests used:
# [1] = test system: PC-3 human prostate cancer cells; assay: Inhibition of cell proliferation in PC-3 cells, DNA assay (Hoechst 33258); type: cell-based; conditions: for IC50: Homo sapiens, inhibition of PC-3 cells, read-out: PC3 IC50
# Experimental: Cell Culture and Drug Treatment. PC-3 human prostate cancer cells were seeded in duplicate 96 well tissue culture plates at 500 cells/well in 80-μL Dulbecco's […] (DMEM) supplemented with 5% fetal bovine serum (FBS) and nonessential amino acids and 1% equimolar mixture of streptomycin-penicllin. The flasks were incubated in a humidified 95% air/5% CO2 atmosphere. The cells were grown for at least 24 hours to ensure that they were in the early log phase of growth. Cells were then treated with 20-μL drug solutions (stock 10 mM drug solution in DMSO was diluted in DMEM containing 5% FBS such that final DMSO concentration is less than 1%) of appropriate final concentration by serial dilution. Untreated control cells received 20-μL DMEM containing 5% FBS. Six wells of each plate received the same drug concentration. Thus, each data point and error bars are an average and standard deviation of readings from 12 wells treated with identical drug concentration.
# DNA Assay. After appropriate time of incubation, DNA assay was performed. For DNA assay, each culture plate was washed with 25% PBS and incubated in deionized double distilled water for at least one hour at room temperature. Plates were frozen at −70° C. and thawed/equilibrated to room temperature. Hoechst 33258 DNA binding dye was then added to each well in 200-μL of high salt TNE buffer (10 mM Tris, 1 mM EDTA, 2 M NaCl [pH 7.4]) at a final concentration of 6.7-μg/mL. After further incubation at room temperature for 2 hours under protection from light, culture plates were scanned on the CytoFluor 2350™ scanner using the 360/460 nm filter excitation and emission set. Readings from all plates were normalized to the fluorescence of control untreated cells and all data were expressed as the percent control.
# PC-3 cells = conditions: micromolar concentrations; cited from earlier work
# CDK1/cyclinB(h) = molecular target: T1, CDK1/cyclinB(h) (Homo sapiens, UniProt P06493); assay: Kinase assay, Millipore KinaseProfiler, radiometric; type: biochemical; conditions: CDK1/cyclinB(h) activity in presence of compound
# T1 construct: purchased Millipore (KinaseProfiler Service)
# T1 sequence (P06493 whole entry): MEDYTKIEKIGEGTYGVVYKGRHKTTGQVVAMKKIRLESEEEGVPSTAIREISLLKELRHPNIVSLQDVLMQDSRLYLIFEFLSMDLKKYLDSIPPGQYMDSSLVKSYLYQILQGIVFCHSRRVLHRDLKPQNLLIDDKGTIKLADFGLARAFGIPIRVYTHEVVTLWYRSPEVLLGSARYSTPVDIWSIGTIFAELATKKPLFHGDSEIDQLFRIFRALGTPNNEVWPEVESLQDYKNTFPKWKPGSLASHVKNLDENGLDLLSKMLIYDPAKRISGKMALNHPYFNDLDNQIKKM
# T1 sequence (P14635 whole entry partner): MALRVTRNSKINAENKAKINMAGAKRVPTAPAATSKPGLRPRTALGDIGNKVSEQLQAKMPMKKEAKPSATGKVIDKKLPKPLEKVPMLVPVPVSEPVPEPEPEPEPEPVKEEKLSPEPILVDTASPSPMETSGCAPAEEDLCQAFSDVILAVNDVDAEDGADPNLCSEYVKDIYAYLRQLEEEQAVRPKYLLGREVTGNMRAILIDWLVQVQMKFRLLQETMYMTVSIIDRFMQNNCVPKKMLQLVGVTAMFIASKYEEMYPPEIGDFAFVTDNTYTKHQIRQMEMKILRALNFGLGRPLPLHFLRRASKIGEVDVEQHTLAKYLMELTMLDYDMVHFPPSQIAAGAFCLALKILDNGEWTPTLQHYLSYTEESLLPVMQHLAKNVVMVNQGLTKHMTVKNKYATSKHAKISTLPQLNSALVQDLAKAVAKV
# Experimental: (§1) Kinase Assays. Kinase assays were conducted by Millipore's KinaseProfiler Service to determine the amount of ATP phosphorylation that occurs in the presence of a benzimidazole molecule. Kinases assayed included IKKβ, CK2, CDK1/cyclinB, GSK3β, and p70S6K. The desired kinase was treated with the benzimidazole compound The reaction were initiated by the addition of the MgATP mix. After incubation for 40 minutes at room temperature, the reaction is stopped by the addition of 3% phosphoric acid solution. 10 μL of the reaction was then spotted onto a P30 filtermat and washed three times for 5 minutes in 75 mM phosphoric acid and once in methanol prior to drying and scintillation counting. The kinase activity was measured radiometrically to determine the amount of ATP phosphorylation produced. All assays were done in triplicate.
# p70S6K(h) = molecular target: T2, p70S6K(h) (Homo sapiens, UniProt P23443); assay: as above; type: biochemical; conditions: p70S6K(h) activity in presence of compound
# T2 construct: purchased Millipore (KinaseProfiler Service)
# T2 sequence (P23443 whole entry): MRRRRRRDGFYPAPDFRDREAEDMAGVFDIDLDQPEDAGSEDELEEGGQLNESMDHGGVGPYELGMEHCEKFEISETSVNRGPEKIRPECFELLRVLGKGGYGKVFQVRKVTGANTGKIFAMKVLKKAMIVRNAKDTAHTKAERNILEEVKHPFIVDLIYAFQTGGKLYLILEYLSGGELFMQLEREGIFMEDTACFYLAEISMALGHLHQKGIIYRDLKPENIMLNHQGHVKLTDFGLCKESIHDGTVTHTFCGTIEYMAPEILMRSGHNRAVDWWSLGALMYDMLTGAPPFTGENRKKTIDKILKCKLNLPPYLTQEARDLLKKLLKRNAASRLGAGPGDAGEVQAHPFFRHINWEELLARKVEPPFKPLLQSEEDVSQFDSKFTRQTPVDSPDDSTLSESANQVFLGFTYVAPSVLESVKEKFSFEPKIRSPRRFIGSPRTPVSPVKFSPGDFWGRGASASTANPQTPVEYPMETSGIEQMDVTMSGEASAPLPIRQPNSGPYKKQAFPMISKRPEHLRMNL
# Experimental: as §1
# CK2(h) = molecular target: T3, CK2(h) (Homo sapiens, UniProt P68400); assay: as above; type: biochemical; conditions: CK2(h) activity in presence of compound
# T3 construct: purchased Millipore (KinaseProfiler Service)
# T3 sequence (P68400 whole entry): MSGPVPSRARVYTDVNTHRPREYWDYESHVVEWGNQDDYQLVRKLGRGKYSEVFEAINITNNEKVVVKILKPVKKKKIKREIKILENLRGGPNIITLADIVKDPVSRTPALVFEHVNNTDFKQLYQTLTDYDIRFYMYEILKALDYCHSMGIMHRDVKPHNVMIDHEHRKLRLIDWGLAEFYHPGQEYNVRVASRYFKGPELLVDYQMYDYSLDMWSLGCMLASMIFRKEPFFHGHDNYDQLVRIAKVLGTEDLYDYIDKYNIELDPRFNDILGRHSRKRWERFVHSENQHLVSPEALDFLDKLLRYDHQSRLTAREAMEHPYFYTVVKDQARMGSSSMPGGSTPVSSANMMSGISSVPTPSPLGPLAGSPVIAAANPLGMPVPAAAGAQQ
# T3 sequence (P67870 whole entry partner): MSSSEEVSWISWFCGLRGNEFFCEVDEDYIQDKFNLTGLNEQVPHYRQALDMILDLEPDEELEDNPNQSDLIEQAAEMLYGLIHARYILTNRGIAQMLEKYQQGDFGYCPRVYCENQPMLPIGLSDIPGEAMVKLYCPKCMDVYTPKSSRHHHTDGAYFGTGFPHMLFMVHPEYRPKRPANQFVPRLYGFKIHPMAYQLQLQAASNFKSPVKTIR
# Experimental: as §1
# IKKβ(h) = molecular target: T4, IKKβ(h) (Homo sapiens, UniProt O14920); assay: as above; type: biochemical; conditions: IKKβ(h) activity in presence of compound
# T4 construct: purchased Millipore (KinaseProfiler Service)
# T4 sequence (O14920 1-756): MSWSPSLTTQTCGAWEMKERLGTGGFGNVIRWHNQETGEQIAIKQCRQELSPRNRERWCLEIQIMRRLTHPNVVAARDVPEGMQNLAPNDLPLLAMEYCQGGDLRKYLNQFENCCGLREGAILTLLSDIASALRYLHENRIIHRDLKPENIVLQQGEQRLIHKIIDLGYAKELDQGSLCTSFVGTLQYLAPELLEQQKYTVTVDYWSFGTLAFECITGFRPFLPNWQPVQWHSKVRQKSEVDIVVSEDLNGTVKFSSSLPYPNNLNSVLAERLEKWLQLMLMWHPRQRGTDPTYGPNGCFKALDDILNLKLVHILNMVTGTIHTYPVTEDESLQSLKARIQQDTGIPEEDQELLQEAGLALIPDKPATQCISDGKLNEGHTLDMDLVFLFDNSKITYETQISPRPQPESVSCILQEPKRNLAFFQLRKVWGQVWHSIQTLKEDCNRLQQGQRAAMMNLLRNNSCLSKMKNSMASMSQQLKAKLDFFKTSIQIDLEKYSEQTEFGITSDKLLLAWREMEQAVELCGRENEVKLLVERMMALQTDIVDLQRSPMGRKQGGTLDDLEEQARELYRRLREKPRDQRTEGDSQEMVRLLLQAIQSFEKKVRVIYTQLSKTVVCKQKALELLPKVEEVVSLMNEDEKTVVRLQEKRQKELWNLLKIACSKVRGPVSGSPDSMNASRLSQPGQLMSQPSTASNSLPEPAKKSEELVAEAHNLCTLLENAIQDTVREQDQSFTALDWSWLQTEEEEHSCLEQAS
# Experimental: as §1
# GSK3β(h) = molecular target: T5, GSK3β(h) (Homo sapiens, UniProt P49841); assay: as above; type: biochemical; conditions: GSK3β(h) activity in presence of compound
# T5 construct: purchased Millipore (KinaseProfiler Service)
# T5 sequence (P49841 whole entry): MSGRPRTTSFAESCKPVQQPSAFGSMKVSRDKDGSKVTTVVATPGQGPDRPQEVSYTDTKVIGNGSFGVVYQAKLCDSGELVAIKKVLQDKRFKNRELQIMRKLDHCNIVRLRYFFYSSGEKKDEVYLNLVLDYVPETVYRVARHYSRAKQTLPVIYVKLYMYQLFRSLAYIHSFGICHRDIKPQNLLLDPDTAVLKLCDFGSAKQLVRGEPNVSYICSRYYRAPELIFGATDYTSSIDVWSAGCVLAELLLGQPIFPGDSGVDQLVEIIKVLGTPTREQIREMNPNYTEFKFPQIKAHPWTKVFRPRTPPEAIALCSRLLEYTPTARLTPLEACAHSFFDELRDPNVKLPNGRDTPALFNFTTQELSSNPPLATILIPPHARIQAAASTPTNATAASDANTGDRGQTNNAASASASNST
# Experimental: as §1
# PDK1(h) = molecular target: T6, PDK1(h) (Homo sapiens, UniProt O15530); assay: as above; type: biochemical; conditions: PDK1(h) activity in presence of compound
# T6 construct: purchased Millipore (KinaseProfiler Service)
# T6 sequence (O15530 1-556): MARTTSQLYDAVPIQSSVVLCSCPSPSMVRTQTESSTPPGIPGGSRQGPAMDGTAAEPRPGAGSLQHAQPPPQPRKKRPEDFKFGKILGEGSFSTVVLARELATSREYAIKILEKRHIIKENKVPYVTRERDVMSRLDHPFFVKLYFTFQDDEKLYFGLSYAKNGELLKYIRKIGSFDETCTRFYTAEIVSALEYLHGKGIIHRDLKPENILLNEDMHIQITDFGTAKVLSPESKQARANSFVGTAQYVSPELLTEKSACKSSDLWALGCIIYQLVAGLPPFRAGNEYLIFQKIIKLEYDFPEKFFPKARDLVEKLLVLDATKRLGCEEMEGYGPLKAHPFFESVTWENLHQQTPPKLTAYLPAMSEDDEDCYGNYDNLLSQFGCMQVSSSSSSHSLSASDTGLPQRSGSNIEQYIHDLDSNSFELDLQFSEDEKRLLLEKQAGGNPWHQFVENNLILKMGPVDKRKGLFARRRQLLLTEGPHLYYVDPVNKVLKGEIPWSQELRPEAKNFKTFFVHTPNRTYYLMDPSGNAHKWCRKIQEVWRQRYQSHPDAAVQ
compound,measurement,setting,value
"Cc1ccc(-c2cc(C(F)(F)F)nn2-c2ccc(S(N)(=O)=O)cc2)cc1 [Compound 201, Celecoxib]",IC50,[1],30 µM
"N=C(N)Nc1ccc(-n2nc(C(F)(F)F)cc2-c2ccc3c(ccc4ccccc43)c2)cc1 [Compound 202, OSU-03013]",IC50,[1],3 µM
same,"concentration diminishing cell proliferation, relative to celecoxib",PC-3 cells,thirty-fold lower
FC(F)(F)c1cc(-c2ccc3c(ccc4ccccc43)c2)n(-c2ccc(-c3nnn[nH]3)cc2)n1 [Compound 203],IC50,[1],32 µM
CC(C)(C)c1ccc(-c2cc(C(F)(F)F)nn2-c2ccc(S(N)(=O)=O)cc2)cc1 [Compound 204],IC50,[1],18 µM
NS(=O)(=O)c1ccc(-n2nc(C(F)(F)F)cc2-c2ccc3ccccc3c2)cc1 [Compound 205],IC50,[1],10 µM
"Cc1ccc(-n2c(-c3ccc(S(N)(=O)=O)cc3)nc3ccccc32)cc1 [Compound 206, 4-[1-(4-methylphenyl)-1H-benzo[d]imidazol-2-yl]benzenesulfonamide]",IC50,[1],24 µM
same,antiproliferative effect in PC-3 cells (in words),"[1]; PC-3 human prostate cancer cells, DNA assay, FIG. 1",slightly more effective
same,% Activity,CDK1/cyclinB(h),7%
same,% Activity,p70S6K(h),33%
same,% Activity,CK2(h),92%
same,% Activity,IKKβ(h),86%
same,% Activity,GSK3β(h),72%
"CC(C)(C)c1ccc(-n2c(-c3ccc(S(N)(=O)=O)cc3)nc3ccccc32)cc1 [Compound 207, 4-(1-(4-tert-butylphenyl)-1H-benzo[d]imidazol-2-yl)benzenesulfonamide]",IC50,[1],20 µM
NS(=O)(=O)c1ccc(-c2nc3ccccc3n2-c2ccc3ccccc3c2)cc1 [Compound 208],IC50,[1],10 µM
"NS(=O)(=O)c1ccc(-c2nc3ccccc3n2-c2ccc(Cc3ccccc3)cc2)cc1 [Compound 209, 4-(1-(4-benzylphenyl)-1H-benzo[d]imidazol-2-yl)benzenesulfonamide]",% Activity,PDK1(h),30%
same,% Activity,CDK1/cyclinB(h),36%
same,% Activity,p70S6K(h),12%
same,% Activity,CK2(h),22%
same,% Activity,IKKβ(h),25%
same,% Activity,GSK3β(h),5%
NS(=O)(=O)c1ccc(-c2nc3ccccc3n2-c2ccc(Oc3ccccc3)cc2)cc1 [Compound 210],% Activity,CDK1/cyclinB(h),16%
same,% Activity,p70S6K(h),18%
same,% Activity,CK2(h),99%
same,% Activity,IKKβ(h),72%
same,% Activity,GSK3β(h),7%
NS(=O)(=O)c1ccc(-c2nc3ccccc3n2-c2ccc(-c3ccccc3)cc2)cc1 [Compound 211],% Activity,CDK1/cyclinB(h),11%
same,% Activity,p70S6K(h),17%
same,% Activity,CK2(h),99%
same,% Activity,IKKβ(h),71%
same,% Activity,GSK3β(h),13%
